EP4737449A1 (Changchun Genescience Pharmaceutical Co., Ltd., priority 2023, dated 2025)
Structures can show the parent of a compound that is named as a salt. Where two headings read alike, the source gives them in different places.

What was measured:
[1] = tested on: NUGC-3 cells; assay: NUGC-3 cell proliferation assay (CTG, 7 days); type: cell-based, human; conditions: Homo sapiens, NUGC-3, 168 h
Procedure: The cells were cultured in strict accordance with ATCC requirements.
Cell culture medium: 1640 culture medium, 10% serum, 1% penicillin + streptomycin.
Culture conditions: 37°C, 95% air, 5% carbon dioxide.
Compounds (20 mM) were subjected to gradient dilution in DMSO: 10 gradients, 3-fold dilution, duplicate wells.
Positive and negative controls (100% dimethyl sulfoxide) were prepared.
The compounds that were gradient diluted with DMSO and positive and negative controls (1st and 2nd step), each 75 nL, were transferred to 384-well cell culture plates by Echo550.
The cells were washed twice with PBS, digested with trypsin, and centrifuged for cell counting.
The experiment can only be carried out when the cell viability is above 90%.
The cells were plated into 384-well cell culture plates, with 200 (NUGC-3) cells and 30 µL of culture medium per well.
The 384-well microplate was placed in a cell culture incubator for 7 days.
30 µL of CTG detection reagent was added to the 384-well microplate.
The 384-well microplate was incubated for 30 min at 37°C, 5% carbon dioxide in the dark.
The reading was performed by a multi-functional microplate reader Envision.
% Inhibition is calculated as follows: % Inhibition = 100−(Signalcmpd−SignalAve_BL)/(SignalAve_VC−SignalAve_BL)*100 [formula] • Signalcmpd: Average signal of the compound in the cell plate • Signalave_vc: Average signal of the negative control in the cell plate • Signalave_BL: Average signal of the blank wells in the cell plate
IC50 was calculated by fitting % inhibition and compound concentration logarithmically to a nonlinear regression (dose response - variable slope) using Graphpad 8.0. Table 2 IC50 of selected compounds in NUGC-3 cell proliferation assay

[2] = target: T1, p53-Y220C mutant protein (Homo sapiens, UniProt P04637, Y220C); assay: In vitro DNA binding activity assay (TR-FRET); type: biochemical; conditions: concentration required to increase the binding activity of protein to DNA by 50%
T1 construct: The recombinant Y220C p53 DBD protein with his-tag
Procedure, shortened: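 His-tagged Y220C p53 DBD was equilibrated with compound 60 min at room temperature, then biotin-DNA, anti-6His-Eu and streptavidin-d2 were added and incubated overnight in the dark. TR-FRET 665/615 nm ratio, background-corrected, was expressed as % activity versus vehicle; SC150 is the concentration raising DNA binding by 50%.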

[3] = NUGC-3 cell proliferation, 7 days, CTG, read-out: IC50

SC150 [2] | SMILES | IC50 [1, 3] | IC50 [1]
22 nM | CN1CC[C@@H](Nc2cccc3c(CC(F)(F)F)c(C#CCNC(=O)c4ccc(C(C)(C)O)nc4)nn23)[C@@H](F)C1 [Compound 236, N-[3-(7-{[(3S,4R)-3-fluoro-1-methylpiperidin-4-yl]amino}-3-(2,2,2-trifluoroethyl)pyrazolo[1,5-a]pyridin-2-yl)prop-2-yn-1-yl]-6-(2-hydroxyprop-2-yl)pyridine-3-carboxamide] | 1280 nM | 
18 nM | CN1CC[C@@H](Nc2cccc3c(CC(F)(F)F)c(C#CCNC(=O)c4cc5n(c4)CCC5)nn23)[C@@H](F)C1 [Compound 260, N-[3-(7-{[(3S,4R)-3-fluoro-1-methylpiperidin-4-yl]amino}-3-(2,2,2-trifluoroethyl)pyrazolo[1,5-a]pyridin-2-yl)prop-2-yn-1-yl]-2,3-dihydro-1H-pyrrolizine-6-carboxamide] | 1190 nM | 
13 nM | CN1CC[C@@H](Nc2cccc3c(CC(F)(F)F)c(C#CCNC(=O)c4ccn(C)c4)nn23)[C@@H](F)C1 [Compound 270, N-[3-(7-{[(3S,4R)-3-fluoro-1-methylpiperidin-4-yl]amino}-3-(2,2,2-trifluoroethyl)pyrazolo[1,5-a]pyridin-2-yl)prop-2-yn-1-yl]-1-methyl-1H-pyrrole-3-carboxamide] | 818 nM | 
23 nM | CN1CC[C@@H](Nc2cccc3c(CC(F)(F)F)c(C#CCNC(=O)c4cc(C#N)n(C)c4)nn23)[C@@H](F)C1 [Compound 271, 5-cyano-N-[3-(7-{[(3S,4R)-3-fluoro-1-methylpiperidin-4-yl]amino}-3-(2,2,2-trifluoroethyl)pyrazolo[1,5-a]pyridin-2-yl)prop-2-yn-1-yl]-1-methyl-1H-pyrrole-3-carboxamide] | 936 nM | 
13 nM | Cc1cc(C(=O)NCC#Cc2nn3c(N[C@@H]4CCN(C)C[C@@H]4F)cccc3c2CC(F)(F)F)c[nH]1 [Compound 272, N-[3-(7-{[(3S,4R)-3-fluoro-1-methylpiperidin-4-yl]amino}-3-(2,2,2-trifluoroethyl)pyrazolo[1,5-a]pyridin-2-yl)prop-2-yn-1-yl]-5-methyl-1H-pyrrole-3-carboxamide] | 1230 nM | 
12 nM | CN1CC[C@@H](Nc2cccc3c(CC(F)(F)F)c(C#CCNC(=O)c4cnn(CC5CCC5)c4N)nn23)[C@@H](F)C1 [Compound 284, 5-amino-1-(cyclobutylmethyl)-N-[3-(7-{[(3S,4R)-3-fluoro-1-methylpiperidin-4-yl]amino}-3-(2,2,2-trifluoroethyl)pyrazolo[1,5-a]pyridin-2-yl)prop-2-yn-1-yl]-1H-pyrazole-4-carboxamide] | 360 nM | 
11 nM | CN1CC[C@@H](Nc2cccc3c(CC(F)(F)F)c(C#CCNC(=O)c4cnn(C(C)(C)C5CC5)c4N)nn23)[C@@H](F)C1 [Compound 290, 5-amino-1-(2-cyclopropylprop-2-yl)-N-[3-(7-{[(3S,4R)-3-fluoro-1-methylpiperidin-4-yl]amino}-3-(2,2,2-trifluoroethyl)pyrazolo[1,5-a]pyridin-2-yl)prop-2-yn-1-yl]-1H-pyrazole-4-carboxamide] | 355 nM | 
7 nM | CC(C1CC1)n1ncc(C(=O)NCC#Cc2nn3c(N[C@@H]4CCN(C)C[C@@H]4F)cccc3c2CC(F)(F)F)c1N (stereo partly drawn) [Compound 291, 5-amino-1-(1-cyclopropylethyl)-N-[3-(7-{[(3S,4R)-3-fluoro-1-methylpiperidin-4-yl]amino}-3-(2,2,2-trifluoroethyl)pyrazolo[1,5-a]pyridin-2-yl)prop-2-yn-1-yl]-1H-pyrazole-4-carboxamide] | 249 nM | 
21 nM | CN1CC[C@@H](Nc2cccc3c(CC(F)(F)F)c(C#CCNC(=O)c4ccc(N)nc4)nn23)[C@@H](F)C1 [Compound 296, 6-amino-N-[3-(7-{[(3S,4R)-3-fluoro-1-methylpiperidin-4-yl]amino}-3-(2,2,2-trifluoroethyl)pyrazolo[1,5-a]pyridin-2-yl)prop-2-yn-1-yl]nicotinamide] | 1230 nM | 
12 nM | COC(C)(C)Cn1ccc(C(=O)NCC#Cc2nn3c(N[C@@H]4CCN(C)C[C@@H]4F)cccc3c2CC(F)(F)F)c1 [Compound 300, N-[3-(7-{[(3S,4R)-3-fluoro-1-methylpiperidin-4-yl]amino}-3-(2,2,2-trifluoroethyl)pyrazolo[1,5-a]pyridin-2-yl)prop-2-yn-1-yl]-1-(2-methoxy-2-methylpropyl)-1H-pyrrole-3-carboxamide] | 411 nM | 
27 nM | CN1CC[C@@H](Nc2cccc3c(CC(F)(F)F)c(C#CCNC(=O)c4ccn5c4COCC5)nn23)[C@@H](F)C1 [Compound 301, N-[3-(7-{[(3S,4R)-3-fluoro-1-methylpiperidin-4-yl]amino}-3-(2,2,2-trifluoroethyl)pyrazolo[1,5-a]pyridin-2-yl)prop-2-yn-1-yl]-3,4-dihydro-1H-pyrrolo[2,1-c][1,4]oxazine-8-carboxamide] | 1190 nM | 
7 nM | CN1CC[C@@H](Nc2cccc3c(CC(F)(F)F)c(C#CCNC(=O)c4cnn(C5CC5)c4N)nn23)[C@@H](F)C1 [Compound 305, 5-amino-N-[3-(7-{[(3S,4R)-3-fluoro-1-methylpiperidin-4-yl]amino}-3-(2,2,2-trifluoroethyl)pyrazolo[1,5-a]pyridin-2-yl)prop-2-yn-1-yl]-1-(cyclopropyl)-1H-pyrazole-4-carboxamide] | 193 nM | 
6 nM | CC(C)n1ncc(C(=O)NCC#Cc2nn3c(N[C@@H]4CCN(C)C[C@@H]4F)cccc3c2CC(F)(F)F)c1N [Compound 306, 5-amino-N-[3-(7-{[(3S,4R)-3-fluoro-1-methylpiperidin-4-yl]amino}-3-(2,2,2-trifluoroethyl)pyrazolo[1,5-a]pyridin-2-yl)prop-2-yn-1-yl]-1-isopropyl-1H-pyrazole-4-carboxamide] | 142 nM | 
4 nM | [2H]C([2H])([2H])N1CC[C@@H](Nc2cccc3c(CC(F)(F)F)c(C#CCNC(=O)c4cnn(C(C)(C)C)c4N)nn23)[C@@H](F)C1 [Compound 311, 5-amino-1-(tert-butyl)-N-[3-(7-{[(3S,4R)-3-fluoro-1-(methyl-d3)piperidin-4-yl]amino}-3-(2,2,2-trifluoroethyl)pyrazolo[1,5-a]pyridin-2-yl)prop-2-yn-1-yl]-1H-pyrazole-4-carboxamide] | 173 nM | 
19 nM | CN1CC[C@@H](Nc2cccc3c(CC(F)(F)F)c(C#CCNC(=O)c4cc(F)n(C)c4)nn23)[C@@H](F)C1 [Compound 312, 5-fluoro-N-[3-(7-{[(3S,4R)-3-fluoro-1-methylpiperidin-4-yl]amino}-3-(2,2,2-trifluoroethyl)pyrazolo[1,5-a]pyridin-2-yl)prop-2-yn-1-yl]-1-methyl-1H-pyrrole-3-carboxamide] | 1460 nM | 

SMILES | SC150 [2] | IC50 [1, 3] | IC50 [1]
CN1CC[C@@H](Nc2cccc3c(CC(F)(F)F)c(C#CCNC(=O)c4ccn(C5CC5)c4)nn23)[C@@H](F)C1 [Compound 280, 1-cycloproyl-N-[3-(7-{[(3S,4R)-3-fluoro-1-methylpiperidin-4-yl]amino}-3-(2,2,2-ethyl trifluoroacetate)pyrazolo[1,5-a]pyridin-2-yl)-prop-2-yn-1-yl]-1H-pyrrole-3-carboxamide] | 16 nM |  | 1060 nM
CN1CC[C@@H](Nc2cccc3c(CC(F)(F)F)c(C#CCNC(=O)c4cnn(CC5CC5)c4N)nn23)[C@@H](F)C1 [Compound 292] | 8 nM |  | 214 nM
